These molecules were tested against GABA-B receptor (Rattus norvegicus (Rat), UniProt O88871+Q9Z0U4) (assay: [35S]GTPgS Binding Assay (rat brain cortex membranes, native receptor)). Settings: rat cortical membranes; in the presence of 1 μM GABA (EC25); basal binding 0%, maximal binding (1 mM GABA) 100%.
Sequence of GABA-B receptor (Q9Z0U4 17-960): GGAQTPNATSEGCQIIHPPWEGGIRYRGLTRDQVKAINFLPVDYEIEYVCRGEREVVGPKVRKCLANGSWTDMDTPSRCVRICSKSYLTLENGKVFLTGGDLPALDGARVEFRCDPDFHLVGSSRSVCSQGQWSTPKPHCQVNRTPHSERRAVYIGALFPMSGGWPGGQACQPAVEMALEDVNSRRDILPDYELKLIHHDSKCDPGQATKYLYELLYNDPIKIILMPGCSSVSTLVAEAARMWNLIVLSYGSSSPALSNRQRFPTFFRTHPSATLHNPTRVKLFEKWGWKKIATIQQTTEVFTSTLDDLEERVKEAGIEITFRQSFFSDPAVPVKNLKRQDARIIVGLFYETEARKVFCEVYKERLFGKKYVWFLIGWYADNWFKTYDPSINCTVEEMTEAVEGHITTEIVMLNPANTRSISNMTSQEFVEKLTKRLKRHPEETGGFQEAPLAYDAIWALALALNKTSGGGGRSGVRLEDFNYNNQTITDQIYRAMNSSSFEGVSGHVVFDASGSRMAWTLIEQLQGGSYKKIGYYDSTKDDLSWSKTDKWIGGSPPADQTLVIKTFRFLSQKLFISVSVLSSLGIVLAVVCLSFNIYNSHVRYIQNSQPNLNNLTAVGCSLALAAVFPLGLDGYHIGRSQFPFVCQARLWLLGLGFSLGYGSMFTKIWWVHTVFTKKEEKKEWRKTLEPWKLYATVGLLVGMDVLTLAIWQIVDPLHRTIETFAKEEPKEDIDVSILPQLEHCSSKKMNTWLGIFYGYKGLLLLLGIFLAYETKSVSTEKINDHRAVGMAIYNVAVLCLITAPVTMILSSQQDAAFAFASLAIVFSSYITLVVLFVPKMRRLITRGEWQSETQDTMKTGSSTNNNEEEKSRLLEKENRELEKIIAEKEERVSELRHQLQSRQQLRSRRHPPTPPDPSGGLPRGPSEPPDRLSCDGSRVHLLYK
Sequence of GABA-B receptor (O88871 41-940): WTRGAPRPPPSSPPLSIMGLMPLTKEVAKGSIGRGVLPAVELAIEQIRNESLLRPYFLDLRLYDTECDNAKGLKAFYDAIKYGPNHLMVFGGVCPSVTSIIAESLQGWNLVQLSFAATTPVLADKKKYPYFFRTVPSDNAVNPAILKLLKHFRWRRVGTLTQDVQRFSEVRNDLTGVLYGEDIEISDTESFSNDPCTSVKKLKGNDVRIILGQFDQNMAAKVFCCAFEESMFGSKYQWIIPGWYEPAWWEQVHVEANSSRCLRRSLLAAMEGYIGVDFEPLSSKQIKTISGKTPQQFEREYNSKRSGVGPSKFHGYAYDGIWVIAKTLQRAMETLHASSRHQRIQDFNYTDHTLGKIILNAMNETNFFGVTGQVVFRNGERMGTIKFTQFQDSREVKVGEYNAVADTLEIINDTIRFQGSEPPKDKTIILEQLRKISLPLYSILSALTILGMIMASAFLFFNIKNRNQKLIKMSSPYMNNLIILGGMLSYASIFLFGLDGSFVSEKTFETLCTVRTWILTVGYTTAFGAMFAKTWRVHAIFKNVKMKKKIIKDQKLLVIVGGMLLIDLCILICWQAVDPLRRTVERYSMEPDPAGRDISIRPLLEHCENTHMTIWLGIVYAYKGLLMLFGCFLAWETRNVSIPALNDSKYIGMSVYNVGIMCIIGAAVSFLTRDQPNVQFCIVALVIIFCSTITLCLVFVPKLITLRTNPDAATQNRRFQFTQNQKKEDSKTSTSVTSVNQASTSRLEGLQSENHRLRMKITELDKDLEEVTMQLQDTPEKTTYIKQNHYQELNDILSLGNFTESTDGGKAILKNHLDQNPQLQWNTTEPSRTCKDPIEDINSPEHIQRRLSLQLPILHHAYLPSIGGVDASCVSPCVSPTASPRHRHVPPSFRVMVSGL
Format: biochemical
`Cc1noc2c(-c3cccc(N)c3C(N)=O)nn(C(C)c3ccc(Cl)cc3)c(=O)c12` (stereo not drawn) [Example 65, 2-amino-6-{5-[1-(4-chlorophenyl)ethyl]-3-methyl-4-oxo-4,5-dihydro[1,2]oxazxazolo[4,5-d]pyridazin-7-yl}benzamide] showed an EC50 of 1850 nM. With `COc1ccc(OC)c(-c2nn([C@H](C)c3ccc(Cl)cc3)c(=O)c3c(C4CC4)noc23)c1` [Example 128, 5-[(1R)-1-(4-chlorophenyl)ethyl]-3-cyclopropyl-7-(2,5-dimethoxyphenyl)-[1,2]oxazolo[4,5-d]pyridazin-4(5H)-one] the EC50 was over 10000 nM. Work on `CCc1noc2c(-c3cc(OC)ccc3OC)nn(Cc3ccc(Cl)cc3)c(=O)c12` [Example 36, 5-(4-chlorobenzyl)-7-(2,5-dimethoxyphenyl)-3-ethyl[1,2]oxazolo[4,5-d]pyridazin-4(5H)-one] yielded an EC50 of 895 nM. In the case of `COc1ccc(-c2nn(Cc3cc(C(F)(F)F)ccc3F)c(=O)c3c(C)noc23)c(OC)c1` [Example 48, 7-(2,4-dimethoxyphenyl)-5-[2-fluoro-5-(trifluoromethyl)benzyl]-3-methyl[1,2]oxazolo[4,5-d]pyridazin-4(5H)-one], the EC50 is reported as 1550 nM. For `Cc1nn(CCc2ccc(Cl)cc2)c(=O)c2c(C)noc12` [Example 60, 5-[2-(4-chlorophenyl)ethyl]-3,7-dimethyl[1,2]oxazolo[4,5-d]pyridazin-4(5H)-one], the EC50 was over 10000 nM. `COc1ccccc1-c1nn(Cc2cc(C(F)(F)F)ccc2F)c(=O)c2c(C)noc12` [Example 46, 5-[2-fluoro-5-(trifluoromethyl)benzyl]-7-(2-methoxyphenyl)-3-methyl[1,2]oxazolo[4,5-d]pyridazin-4(5H)-one] was tested, and the EC50 was 2290 nM. For `CC(=O)Nc1cccc(-c2nn([C@@H](C)c3ccc(Cl)cc3)c(=O)c3c(C)noc23)c1` [Example 72, N-(3-{5-[(1S)-1-(4-chlorophenyl)ethyl]-3-methyl-4-oxo-4,5-dihydro[1,2]oxazolo[4,5-d]pyridazin-7-yl}phenyl)acetamide], the EC50 was 7700 nM. `COc1ccc(-c2nn(Cc3ccc(Cl)cc3)c(=O)c3c(C)noc23)cc1` [Example 2, 5-(4-chlorobenzyl)-7-(4-methoxyphenyl)-3-methyl[1,2]oxazolo[4,5-d]pyridazin-4(5H)-one] gave an EC50 of over 10000 nM. Molecule `CC(=O)Nc1cccc(-c2nn(C(C)c3ccc(Cl)cc3)c(=O)c3c(C)noc23)c1` (stereo not drawn) [Example 78, N-(3-{5-[1-(4-chlorophenyl)ethyl]-3-methyl-4-oxo-4,5-dihydro[1,2]oxazolo[4,5-d]pyridazin-7-yl}phenyl)acetamide] has an EC50 of 6350 nM. Work on `CNC(=O)c1ccc(OC)c(-c2nn(C(C)c3ccc(Cl)cc3)c(=O)c3c(C)noc23)c1` (stereo not drawn) [Example 119, 3-{5-[1-(4-chlorophenyl)ethyl]-3-methyl-4-oxo-4,5-dihydro[1,2]oxazolo[4,5-d]pyridazin-7-yl}-4-methoxy-N-methylbenzamide] yielded an EC50 of 56 nM. For `CC(=O)Nc1c(F)ccc(-c2nn([C@H](C)c3ccc(C(F)(F)F)cc3)c(=O)c3c(C)noc23)c1C` [Example 112, N-[6-fluoro-2-methyl-3-(3-methyl-4-oxo-5-{(1R)-1-[4-(trifluoromethyl)-phenyl]ethyl}-4,5-dihydro[1,2]oxazolo[4,5-d]pyridazin-7-yl)phenyl]acetamide], the EC50 was 3630 nM. With `Cc1nn([C@H](C)c2ccc(Cl)cc2)c(=O)c2c(C)noc12` (single isomer, unassigned) [Example 58] the EC50 was over 10000 nM.

— patent US10556914B2, “Substituted isoxazolopyridazinones and isothiazolopyridazinones and methods of use” (AbbVie Inc., priority 2015, dated 2020)
